Assay results as given in BindingDB's records for doi:10.1021/acs.jmedchem.0c00774 (Istituto Italiano Di Tecnologia, 2020).

Target: Prostaglandin G/H synthase 1 (Homo sapiens, UniProt P23219)
Test: Inhibition of human COX1

Prostaglandin G/H synthase 1, sequence (P23219 whole entry): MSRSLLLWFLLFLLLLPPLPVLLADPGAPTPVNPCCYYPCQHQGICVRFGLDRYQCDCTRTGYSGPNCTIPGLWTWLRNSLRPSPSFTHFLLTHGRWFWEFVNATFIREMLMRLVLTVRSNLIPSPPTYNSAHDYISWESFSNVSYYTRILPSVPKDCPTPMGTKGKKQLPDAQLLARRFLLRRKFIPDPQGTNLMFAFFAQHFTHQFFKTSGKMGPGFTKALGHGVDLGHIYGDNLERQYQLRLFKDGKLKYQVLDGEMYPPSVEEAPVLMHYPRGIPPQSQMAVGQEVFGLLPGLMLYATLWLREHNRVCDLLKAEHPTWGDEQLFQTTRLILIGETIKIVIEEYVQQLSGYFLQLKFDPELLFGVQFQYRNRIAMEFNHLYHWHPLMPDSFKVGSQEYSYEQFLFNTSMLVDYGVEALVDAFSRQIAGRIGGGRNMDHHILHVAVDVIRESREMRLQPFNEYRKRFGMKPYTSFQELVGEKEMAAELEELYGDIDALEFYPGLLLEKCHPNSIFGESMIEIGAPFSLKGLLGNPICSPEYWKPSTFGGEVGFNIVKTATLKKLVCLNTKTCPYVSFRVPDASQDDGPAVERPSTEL

How did the IC50 turn out when CN(C)c1ccc(Nc2nc(-c3ccncc3)nc3c2CC(N)CC3)cc1 (stereo unspecified) was run?
Its IC50 is 4 µM.
